The conditions of data set [1]: clinically approved dosages 0.1-0.3 mg/kg of body weight, tissue/organ transplants; cited from earlier work.
A further data set deals with Jurkat cells. Briefly: Tacrolimus serum experiments: dose response of FKBP13 constructs under different serum concentrations, GFP MFI. It counts as cell-based. To be noted: increasing FBS, FIGS. 51-54. The protocol:
Incubation with increasing FBS results in 2 fold increase in Ec50 with 80% FBS.

For another data set, the target named is T1, FKBP13 (Homo sapiens, UniProt P26885).
T1 sequence (P26885 22-142): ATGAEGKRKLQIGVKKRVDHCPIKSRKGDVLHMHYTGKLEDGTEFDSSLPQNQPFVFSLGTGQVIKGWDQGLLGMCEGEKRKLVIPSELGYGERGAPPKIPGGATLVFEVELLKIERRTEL
The conditions noted are these: read-out: binding affinity for FKBP13; cited from earlier work.

A word on the Cmax: it is the highest concentration seen after dosing. Turning to `C=CC[C@@H]1/C=C(\C)C[C@H](C)C[C@H](OC)[C@H]2O[C@@](O)(C(=O)C(=O)N3CCCC[C@H]3C(=O)O[C@H](/C(C)=C/[C@@H]3CC[C@@H](O)[C@H](OC)C3)[C@H](C)[C@@H](O)CC1=O)[C@H](C)C[C@@H]2OC` [Tacrolimus, tacrolimus], in data set [1], the Cmax was 20 to 68 ng/mL. Also, the “increase in Ec50 with 80% FBS” value in the data set on Jurkat cells amounted to 2 fold. On FKBP13, the Kd is 166 nM.

Source of the values: patent US20250186614A1, “COMPACT DRUG RESPONSIVE DOMAINS FOR REGULATION OF FUNCTION/ABUNDANCE AND DELIVERY OF POLYPEPTIDE PAYLOADS” (OBSIDIAN THERAPEUTICS, INC., priority 2022, published 2025).
